Patent US20240335385A1, “IONIZABLE AMINE LIPIDS AND LIPID NANOPARTICLES” (Beam Therapeutics Inc., priority 2021, published 2024)

Assays:
[1] = LNP hydrodynamic diameter and polydispersity index by dynamic light scattering (DLS); assay type: physicochemical; conditions: LNP of 47.5% Ionizable Lipid:40% cholesterol:2.5% PEG-2000 DMG:10% DPSC, N/P ratio 4-8
Description: (§1) LNPs were prepared with 47.5% Ionizable Lipid (e.g., a compound provided herein):40% cholesterol:2.5% PEG-2000 DMG:10% DPSC and an N/P ratio range of 4-8. LNPs were formed by microfluidic mixing of the lipid and NA solutions using a Precision Nanosystems NanoAssemblr Spark or Benchtop series Instruments, according to the manufacturer's protocol. A ratio of aqueous to organic solvent of approximately 2:1 or 3:1 was maintained during mixing using differential flow rates. After mixing, LNPs were collected, diluted in phosphate buffer saline (PBS) or Tris-buffered saline (TBS) (approximately 1:1 v/v). Further buffer exchange was conducted using dialysis in PBS or TBS at 4° C. for 4 to 24 hours against a 20 kDa filter. After this initial dialysis, each individual LNP preparation was characterized via dynamic light scattering (DLS) to measure the size (e.g., diameter) and polydispersity. LNPs falling within specific diameter and polydispersity ranges were pooled, and further dialyzed against PBS or TBS at 4° C. for 1 to 4 hours against a 100 kDa dialysis cassette. After the second dialysis, LNPs were sterile filtered using 0.22 μm filter and stored at 4° C. for further use.
LNP hydrodynamic diameter and polydispersity index (PDI) were measured using high throughput dynamic light scattering (DLS) (Stunner, Unchained Labs). LNPs were diluted 1×TBS or PBS to an appropriate concentration and analyzed.

ALAS1 target site = assay: Base editing in liver by LNP carrying adenine base editor mRNA and sgRNA, targeted deep sequencing; assay type: in vivo; conditions: Balb/C mice, tail vein, 0.15 mg/kg total RNA (ABE mRNA:sgRNA 1:1), four to six days post-dose
Description: Exemplary LNP preparations were selected to determine each preparation's ability to perform base editing in a Balb/C mouse model as described herein.
Lipid nanoparticle components were dissolved in 100% ethanol at specified lipid component molar ratios. mRNA encoding an adenine base editor and a chemically-modified sgRNA was dissolved at a mass ratio of 1:1 in 50 mM citrate, pH 4.0, resulting in a concentration of NA cargo of approximately 0.1 mg/mL.
LNP preparations were formulated with molar ratios of 47.5% Ionizable Lipid:40% Cholesterol:2.5% PEG2000-DMG:10% DSPC total lipid to NA mass ratio of 6 to 12. […]
A 3:1 ratio of aqueous to organic solvent was maintained during mixing using differential flow rates. […] After this initial dialysis, each individual LNP preparation was characterized via dynamic light scattering (DLS) to measure size and polydispersity. pKa of a subpopulation of LNP preparations was measured via TNS assay. […]
Age-matched mice were also used to administer vehicle (1×TBS) via tail vein injection as a control. […] Base editing is determined by performing targeted deep sequencing analysis at the ALAS1 target site using extracted genomic DNA. […] Library size and concentration was confirmed by Fragment Analyzer (Agilent) and analyzed for […] using an Illumina HiSeq.

[2] = RNA encapsulation efficiency of LNPs by Ribogreen assay; assay type: physicochemical; conditions: LNP of 47.5% Ionizable Lipid:40% cholesterol:2.5% PEG-2000 DMG:10% DPSC, N/P ratio 4-8
Description: as §1
RNA concentration and encapsulation efficiency were determined by Ribogreen assay (BioTek Synergy LX plate reader).

spleen = assay: LNP biodistribution screen, barcode fold above input (FAI) in spleen; assay type: in vivo; conditions: mice, tissues 4 hours post-dose
Description: (§2) Male and female mice aged approximately 8-12 weeks were used for studies described by the present Example. Each mouse was temporarily restrained and pooled LNP was administered IV via tail vein injection in up to five animals per experiment. Age-matched mice was also used to administer vehicle (1×TBS) via tail vein injection in up to three animals per experiment. Additional routes of administration can also be conducted including intracerebral ventricular (ICV), intracisterna manga (ICM), intrathecal (IT), intramuscular (IM), nebulization, intranasal (IN), subcutaneous (SC), intraarticular, and intradermal (ID). At 4 hours post-dose, tissues including liver, spleen, bone marrow, testes, gastrocnemius, quadricep, lung, heart, kidney, and pancreas may be collected for analysis.
(§3) Liver, kidney, lung, and muscle (e.g. skeletal and cardiac) tissues may be mechanically, and then enzymatically digested using a mixture of proteinases, then passed through a 70 μm filter to generate single cell suspensions. Spleen tissues were mechanically digested to generate single cell suspensions. Tissues were treated with ACK buffer to lyse red blood cells, and then stained with fluorescently-labeled antibodies for flow cytometry and fluorescence-activated cell sorting (FACS). Commercially available antibodies were used in the present example. Using a BD FACSMelody (Becton Dickinson), samples were acquired via flow cytometry to generate gates prior to sorting. In general, the gating structure was size→singlet cells→live cells→cells of interest. T cells were defined as CD45+CD3+, monocytes are defined as CD45+CD11b+, and B cells are defined as CD45+CD19+. Endothelial cells were defined as CD31+, monocytes and Kupffer cells as CD45+CD11b+ and hepatocytes and myocytes were defined as CD31−/CD45− in the liver and muscle, respectively. Tissues from vehicle-dosed mice were used to set the gates for sorting.
(§4) RNA from tissues were extracted using the Reliaprep RNA extraction kit, and libraries were prepared using the RNAseq kit, and sequenced on either a MiSeq or NextSeq500.
(§5) To screen for preferential LNP delivery to a target tissues, the relative abundance of each barcode in one or more target tissues was measured and compared to the relative abundance of each barcode to its corresponding relative input abundance to determine fold above input (FAI) for each barcode. If the FAI of a barcode in a target tissue is above a threshold or above the FAI of a different LNP in the same tissue, the LNP can be identified as preferentially delivering to the target tissue.
(§6) The FAI is the normalized relative abundance of a barcode in a selected sample as compared to its frequency in the input. The FAI of a barcode indicates how a LNP's abundance changes relative to the rest of the LNP pool. The FAI value of the barcode was calculated by normalizing the relative abundance in the barcode sequence counts in the isolated samples to its relative abundance in the administration input. […] The FAI then indicates the performance of an LNP relative to the input LNP composition.
(§7) Each table describes data obtained from one screening experiment.

lung = assay: LNP biodistribution screen, barcode fold above input (FAI) in lung; assay type: in vivo; conditions: mice, tissues 4 hours post-dose
Description: as §2, §3, §4, §5, §6, §7

liver = assay: LNP biodistribution screen, barcode fold above input (FAI) in liver; assay type: in vivo; conditions: mice, tissues 4 hours post-dose
Description: as §2
Liver, kidney, lung, and muscle (e.g. skeletal and cardiac) tissues may be mechanically, and then enzymatically digested using a mixture of proteinases, then passed through a 70 μm filter to generate single cell suspensions. Spleen tissues were mechanically digested to generate single cell suspensions. Tissues were treated with ACK buffer to lyse red blood cells, and then stained with fluorescently-labeled antibodies for flow cytometry and fluorescence-activated cell sorting (FACS). Commercially available antibodies were used in the present example. Using a BD FACSMelody (Becton Dickinson), samples were acquired via flow cytometry to generate gates prior to sorting. […]
To screen for preferential LNP delivery to a target tissues, the relative abundance of each barcode in one or more target tissues was measured and compared to the relative abundance of each barcode to its corresponding relative input abundance to determine fold above input (FAI) for each barcode. […]
The FAI is the normalized relative abundance of a barcode in a selected sample as compared to its frequency in the input. […] The FAI value of the barcode was calculated by normalizing the relative abundance in the barcode sequence counts in the isolated samples to its relative abundance in the administration input. […]

[3] = screening experiment of Table 3, pooled LNP IV tail vein
[4] = screening experiment of Table 5, pooled LNP IV tail vein
[5] = screening experiment of Table 4, pooled LNP IV tail vein

In the case of `CC/C=C\CCCCOC(CCC(=O)OCCCCC(CCCCOC(=O)CCCCCCC/C=C\C/C=C\CCCCC)OC(=O)OCC1CCCN(CC)C1)OCCCC/C=C\CC` (stereo not drawn) [Example 7-41, 9-((4,4-bis(((Z)-oct-5-en-1-yl)oxy)butanoyl)oxy)-5-((((1-ethylpiperidin-3-yl)methoxy)carbonyl)oxy)nonyl (9Z,12Z)-octadeca-9,12-dienoate], the “Mean Diameter (nm)” value [1] was 80.3 nm, the “Mean PDI” value [1] was 0.11 and the “base editing observed in liver” value (ALAS1 target site) was 1.7%. For the same compound, the “Mean Encapsulation Efficiency (%)” value [2] was 84.3%.

For “5-((4,4-bis(((Z)-oct-5-en-1-yl)oxy)butanoyl)oxy)-3-((4-(pyrrolidin-1-yl)butanoyl)oxy)pentyl (9Z,12Z)-octadeca-9,12-dienoate [Example 7-5]”, the “Mean Diameter (nm)” value [1] was 93.1 nm, the “Mean PDI” value [1] was 0.13 and the “FAI (Spleen)” value (spleen; [3]) was 1.29. The “FAI (Spleen)” value (spleen; [4]) was 1.33, the “FAI (Lung)” value (lung; [3]) was 1.30 and the “FAI (Lung)” value (lung; [4]) was 0.83. The “Mean Encapsulation Efficiency (%)” value [2] was 86.8% and the “FAI (Liver)” value (liver; [3]) was 2.28.

In the case of `CC/C=C\CCCCOC(CCC(=O)OCCCC(CCCOC(=O)CCCCCCC/C=C\C/C=C\CCCCC)OC(=O)OCC1CCCN(CC)C1)OCCCC/C=C\CC` (stereo not drawn) [Example 7-21, 7-((4,4-bis(((Z)-oct-5-en-1-yl)oxy)butanoyl)oxy)-4-((((1-ethylpiperidin-3-yl)methoxy)carbonyl)oxy)heptyl (9Z,12Z)-octadeca-9,12-dienoate], the “Mean Diameter (nm)” value [1] was 90.0 nm, the “Mean PDI” value [1] was 0.11 and the “base editing observed in liver” value (ALAS1 target site) was 34.1%. The “Mean Encapsulation Efficiency (%)” value [2] was 86.4%.

For `CCCCC/C=C\C/C=C\CCCCCCCCC(CCCCCCCC/C=C\C/C=C\CCCCC)OC(=O)CCCN(C)C` [MC3, (6Z,9Z,28Z,31Z)-heptatriaconta-6,9,28,31-tetraen-19-yl 4-(dimethylamino) butanoate], the “FAI (Spleen)” value (spleen; [3]) was 1.32, the “FAI (Spleen)” value (spleen; [5]) was 0.45 and the “FAI (Spleen)” value (spleen; [4]) was 0.39. The “FAI (Lung)” value (lung; [3]) was 1.09, the “FAI (Lung)” value (lung; [5]) was 0.65 and the “FAI (Lung)” value (lung; [4]) was 0.50. For the same compound, the “FAI (Liver)” value (liver; [3]) was 0.80 and the “FAI (Liver)” value (liver; [5]) was 0.31.
